Data as given in patent US20130136772A1, “REGULATION OF IMMUNE RESPONSE BY COLOCYNTHIN AND/OR ITS DERIVATIVES” (priority 2010, published 2013).

Experiments:
IL-1 beta = test: In vivo IL-1 beta estimation in serum of LPS challenged mice; set-up: species or system balb/c mice; conditions: 1, 2.5, 5 and 10 mg/kg oral for 6 days, LPS 1 mg/kg i.v., serum 90 min after LPS
Procedure: Invivo experiments were carried out using balb/c mice that were orally administrated with graded oral doses of AD-B-63B (1, 2.5, 5 and 10 mg/kg) for 6 days and challenged with LPS. Nitric oxide (NO) is an important mediator of diverse physiologic and pathologic processes, including many inflammatory diseases [Abramson S B, Amin A R, Clancy R M, Attur M, (2001). The role of nitric oxide in tissue destruction. Best Practice & Research Clinical Rheumatology; 15: 831-845]. Several lines of evidence implicate NO in the pathogenesis of inflammation. For example, rodents in animal models of arthritis generate abundant quantities of NO, as reflected in high levels of serum and urinary NO that develop in association with disease manifestations [Stefanovic-Racic M, Meyers K, Meschter C, Coffey J W, Hoffman R A, Evans C H, (1994). Monomethyl arginine, an inhibitor of nitric oxide synthase, suppresses the development of adjuvant arthritis in rats. Arthritis & Rheumatism; 37: 1062-1069.] [McCartney-Francis N, Allen J B, Mizel D E, Albina J E, Xie Q W, Nathan C F, Wahl S M, (1993). Suppression of arthritis by an inhibitor of nitric oxide synthase. Journal of Experimental Medicine; 178: 749-754.] [Weinberg J B, (1998). […] TNF-α, IL-1 beta and Nitric oxide production was evaluated by a commercial ELISA kits (R&D Systems) in serum from AD-B-63B treated mice, 90 min after LPS injection.

leucocyte migration = test: In vivo leucocyte migration (carrageenan induced pleurisy); set-up: species or system mice; conditions: for EXUDATE VOLUME Mean ± S.E.: 1 h before and 6 h after carrageenan, pleural exudate at 24 h
Procedure: Mice were injected with 0.2 ml of carrageenan (1% w/v) solution in sterilised normal saline into the pleural cavity by the modified method of Meacock and Kitchen, 1979 [Meacock S C R, Kitchen E A, (1979). Effect of non-steroidal antiinflammatory drug benoxaprofen on leukocyte migration. Journal of Pharmacy & Pharmacology; 31: 366-370]. The test drug was administered orally 1 h before and 6 h after the injection. After 24 h of carrageenan injection the pleural exudate was collected, volume measured and the total leucocyte count of the pleural fluid was determined (Table 3). Flowcytometry as a tool for evaluation of neutrophils is particularly useful because of their larger size than monocytes and lymphocytes when analysed on the forward scatter [FSc]. The percentage of these can be analysed by selectively ‘gating’ the neutrophils without physical separation of the cells (FIG. 4).

vascular permeability = test: Acetic acid-induced vascular permeability; type: in vivo, mice; conditions: for DYE CONCENTRATION: Evans blue, acetic acid i.p.
Procedure: Acetic acid-induced increased vascular permeability in mouse model is a capillary permeability assay. Reduction in the increased peritoneal vascular permeability indicates the suppression of the vascular response in the process of acute inflammation.
Mice were injected with […] of Evans blue dye (0.25% w/v in normal saline) intravenously after 30 min of oral administration of the drug. Fifteen minutes later, the mice were injected intraperitoneally (1 ml/100 g of body weight) with freshly prepared 0.6% of acetic acid (v/v) in normal saline. After 30 min of acetic acid injection, the peritoneal cavities were washed with 5 ml of heparinised sterile normal saline and centrifuged (3000×g) for 10 min Absorbance of the supernatant was measured at 610 nm using a spectrophotometer (Table 3) [Whittle B. A. The use of changes in capillary permeability in mice to distinguish between narcotic and non-narcotic analgesics. Brit J Pharmacol 1964; 2: 246-253].

[1] = tested on: peritoneal murine macrophages; test: Phagocytosis of heat killed Candida albicans by murine macrophages (in vitro); type: cell-based
Procedure: The method of Lehrer (1981) [Lehrer, R. I. Ingestion and destruction of Candida albicans. (1981) In: Methods for studying mono-nuclear phagocytes. Eds. Adams, D. O., Edelson, P. J. and Koren, H. (Academic Press, New York) 693-7081 was followed. The percentage and average number of Candida albicans cells (heatkilled) ingested by peritoneal murine macrophages was calculated. AD-B-63B was tested at the doses of 1, 2.5, Sand 10 μg/mL (Table 4).

IL-4 = test: Intracellular IL-4 expression in SRBC immunised mice; type: in vivo, Swiss albino mice; conditions: graded doses; significantly inhibited at 2.5, 5 and 10 mg/kg
Procedure: Estimation of intracellular cytokines: The animals were immunized as mentioned above. After 6 days of drug administration, the animals were challenged on day 7. After 48 h of challenge, the blood was collected in the tubes containing EDTA (anti-coagulant) from retro-orbital plexes of animals to determine the effect of test material on the expression of intracellular IL-2 and IFN-γ (Th1) and IL-4 (Th2) cytokines. In this study, PE labeled IL-2 monoclonal antibody was used in one set and PE labeled IFN-γ and FITC labelled IL-4 monoclonal antibody was used in the other set of experimentation (FIG. 7, 8, 9).

[2] = graded oral doses, highly significant effect at 10 mg/kg oral dose

## CC(=O)OC(C)(C)/C=C/C(=O)[C@](C)(O)[C@H]1[C@H](O)C[C@@]2(C)[C@@H]3CC=C4[C@@H](C=C(O[C@@H]5O[C@H](CO)[C@@H](O)[C@H](O)[C@H]5O)C(=O)C4(C)C)[C@]3(C)C(=O)C[C@]12C [AD-B-63B, 2-O-β-D-glucopyranosyl cucurbitacin E]
IL-1 beta
  Level of serum IL-1 beta: significant reduction
Leucocyte migration; 1 mg/kg p.o.
  % inhibition of exudate volume: (22.72%↓)
  % inhibition of total leucocyte count: (12.12%↓)
  EXUDATE VOLUME Mean ± S.E.: 0.85 ± 0.10 mL
Leucocyte migration; 5 mg/kg p.o.
  % inhibition of exudate volume: (38.18%↓)
  % inhibition of total leucocyte count: (23.52%↓)
  EXUDATE VOLUME Mean ± S.E.: 0.68 ± 0.18 mL
Leucocyte migration; 10 mg/kg p.o.
  % inhibition of exudate volume: (44.54%↓)
  % inhibition of total leucocyte count: (24.39%↓)
  EXUDATE VOLUME Mean ± S.E.: 0.61 ± 0.10 mL
Leucocyte migration; [2]
  exudates volume against control: dose dependent inhibition
  total leucocytes count against control: dose dependent inhibition
Vascular permeability; 1 mg/kg p.o.
  percent reduction of dye concentration: (10.71%↓)
  DYE CONCENTRATION: 0.50 ± 0.02 μg/25 g mouse
Vascular permeability; 5 mg/kg p.o.
  percent reduction of dye concentration: 32.14%
  DYE CONCENTRATION: 0.38 ± 0.02 μg/25 g mouse
Vascular permeability; 5 mg/kg p.o., listed as AD-B-63-B
  percent reduction of dye concentration: (32.14%↓)
Vascular permeability; 10 mg/kg p.o.
  percent reduction of dye concentration: 35.71%
  DYE CONCENTRATION: 0.36 ± 0.02 μg/25 g mouse
Vascular permeability; 10 mg/kg p.o., listed as AD-B-63-B
  percent reduction of dye concentration: (35.71%↓)
[1]; 1 μg/ml
  % phagocytosis [in vitro study] Mean ± S.E.: 24.00 ± 2.32%
  percent decrease in phagocytosis: (10.48%↓)
[1]; 5 μg/ml
  % phagocytosis [in vitro study] Mean ± S.E.: 18.22 ± 2.11%
[1]; 10 μg/ml
  % phagocytosis [in vitro study] Mean ± S.E.: 17.33 ± 1.42%
IL-4
  expression of intracellular IL-4: decrease
